{"source": "patent US20250332378A1", "about": "“CATHETERS” (ConvaTec Limited, priority 2023, published 2025)", "type_in_all_cases": "cell-based", "key": {"[1]": {"system": "Escherichia coli NCIMB 14067", "experiment": "In vitro direct inoculation method, comparative test", "procedure": "(§1) An in vitro direct inoculation method was used to assess the antimicrobial activity of sulfanilamide in an intermittent urinary catheter scenario against […] Escherichia coli NCIMB 14067 and […] Enterococcus faecalis NCTC 12201; two microorganisms associated with urinary tract infections. Sulfanilamide concentrations of 0.1% and 0.01% were tested and bacterial levels monitored over a period of 5 minutes.\n(§2) Representative colonies of the challenge microorganisms, from an 18-24 hour challenge culture plate, were dispersed in MRD to obtain an optical density (OD540 nm) equivalent to approximately 1×10^8 CFU/mL. This was diluted to obtain a working concentration of 1×10^6 CFU/mL. A quantitative count was performed to confirm the inoculum level.\n(§3) The challenge organism was prepared in MRD to a concentration of approximately 1×10^6 CFU/mL. This suspension was added in a 1 mL volume to 9 mL of sample (n=3 per sample, n=2 per control) in a sterile 30 mL universal and pipetted up and down to mix. Following each testing period, 5 seconds, 30 seconds, 1 minute, 2 minutes and 5 minutes, 100 μL of the test solution was transferred to 0.9 mL and 9.9 mL volumes of DENB (1:10 and 1:100 dilutions respectively). The most appropriate dilutions were inoculated (100 μL) onto duplicate pre-dried (tryptone soy agar) TSA plates and the inoculum spread using separate sterile L-shaped spreaders (for 10^−1 and 10^−2 dilutions, 0.5 mL were placed onto duplicate plates). The TSA plates were allowed to dry before being inverted and incubated at 35±3° C. for at least 48 hours. Following the incubation period, the number of bacterial colonies were counted on the most appropriate dilution for each dressing type i.e. between 25-250 CFU/plate.\n(§4) The samples tested were: 0.1% sulfanilamide in sterile deionised water (SDW); 0.01% sulfanilamide in SDW; 100 ppm hypochlorous acid in SDW; and a SDW control."}, "[2]": {"system": "Enterococcus faecalis NCTC 12201", "experiment": "In vitro direct inoculation method, comparative test", "procedure": "as §1, §2, §3, §4"}, "E. coli NCIMB 14067": {"system": "E. coli NCIMB 14067", "experiment": "Antimicrobial efficacy at very low concentrations, total viable counts", "conditions": "for numbers of bacteria: after 30 seconds, approximately 1×10^5 CFU/mL inoculated", "procedure": "The antimicrobial efficacy of hypochlorous acid was tested at even lower concentrations (10, 25, and 50 ppm) against the challenging organism E. coli NCIMB 14067.\nThe representative colonies of E. coli NCIMB 14067 were dispersed in maximum recovery diluent (MRD) to obtain an optical density (OD540 nm) equivalent to approximately 1×10^6 CFU/mL. A quantitative plate count was performed on this suspension to determine the total number of viable organisms inoculated. A new suspension was prepared for each concentration tested.\nA 1000 ppm hypochlorous acid solution was diluted in sterile deionised water to provide the respective 10, 25 and 50 ppm hypochlorous acid solutions.\nThe hypochlorous acid samples were aliquoted into 9 mL volumes and 1 mL of the challenge organism suspension was added and mixed (the final number of bacteria present is now approximately 1×10^5 CFU/mL). Following 5, 30 seconds, 1, 2, and 5 minutes, 100 μL volumes were sampled and transferred to 0.9 mL and 9.9 mL of Dey-Engley Neutralising Broth (DENB) (to provide a 1:10 and 1:100 dilution respectively), and total viable counts were performed to establish the amount present. The plates were left to dry before being inverted and incubated at 35±3° C. for at least 48 hours. A negative control was also tested whereby 1 mL of the challenge organism suspension was added to 9 mL of MRD and tested as previously described. Following the incubation period, the number of CFUs were counted on the most appropriate dilution for each sample i.e. between 25-250 CFU/plate."}, "S. aureus": {"system": "S. aureus", "experiment": "Rate of kill assessment against repeat inoculation, catheter submerged in medium", "conditions": "within 5 seconds following inoculation; repeat inoculation up to 24 hours", "procedure": "(§5) To assess the sterilisation potential of the medium of the invention, a microbiology assessment was conducted which consisted of rate of kill assessments against repeat inoculation of E. coli and E. faecalis. These organisms were selected as they are commonly identified in catheter associated urinary tract infections. The selection also covers both gram-positive and gram-negative species to test the broad spectrum antimicrobial performance of the medium of the invention.\n(§6) Intermittent urinary catheters, as used for Example 1, were provided and submerged in an aqueous medium comprising sodium hypochlorite and sodium chloride. The media comprising the catheters were respectively inoculated with the two microorganisms.\n(§7) A direct inoculation method was applied against each microorganism. The test organisms were reinoculated following 1, 2, 3, 4, 5, 6, and 24 hours. Following each inoculation, a sample was taken after 5 seconds, 1, 5, 10 and 15 minutes to evaluate the rate of kill.\n(§8) A microbiology assessment was performed using a medium of the invention comprising hypochlorous acid in an analogous manner to that performed for Example 2. However, for this test, following each inoculation, a sample was only taken after 5 seconds to evaluate the rate of kill. Further, in addition to the previous microorganisms tested, a further gram-positive organism, S. aureus, was tested."}, "E. coli": {"system": "E. coli", "experiment": "Rate of kill assessment against repeat inoculation, catheter submerged in medium", "conditions": "for time up to which highly effective kill was observed: all time periods post-inoculation; for time up to which rapid kill was observed: within 5 seconds following inoculation, repeat inoculation up to 24 hours", "procedure": "as §5, §6, §7, §8\n(§9) To evaluate the antimicrobial activity further, the test was repeated using the same frequency of inoculation, but with sampling performed up to 5 minutes after reinoculation at 24 hours. Even for the most challenging organism, E. faecalis, a reduction in the microbial colony forming unit (CFU) counts of over 3 orders of magnitude was observed after 5 minutes of inoculation.\n(§10) A microbiology assessment was performed using the media of the invention comprising hypochlorous acid in an analogous manner to that performed for Example 2. However, for this test, following each inoculation, samples were taken after 5 seconds, 30 seconds, 1, 2, and 5 minutes to evaluate the rate of kill."}, "E. faecalis": {"system": "E. faecalis", "experiment": "Rate of kill assessment against repeat inoculation, catheter submerged in medium", "conditions": "for reduction in the microbial colony forming unit (CFU) counts: reinoculation at 24 hours; for time up to which rapid kill was observed: within 5 seconds following inoculation, repeat inoculation up to 24 hours", "procedure": "as §5, §6, §7, §8, §9, §10"}, "[3]": {"conditions": "100 ppm in SDW, within 5 seconds and for the remaining testing period (5 minutes)"}, "[4]": {"conditions": "675 ppm, 30 seconds after sampling"}, "[5]": {"conditions": "each concentration tested (250, 675, 1000, 2000 ppm), after 5 minutes of sampling"}, "[6]": {"conditions": "0.1% and 0.01% in SDW, any timepoint, 5 seconds to 5 minutes"}}}
{"smiles": "OCl", "note": "[hypochlorous acid]", "values": [{"measurement": "numbers of challenge organism", "setting": "[1]; [3]", "value": "undetectable numbers"}, {"measurement": "numbers of challenge organism", "setting": "[2]; [3]", "value": "undetectable numbers"}, {"measurement": "numbers of bacteria", "setting": "E. coli NCIMB 14067; 25 ppm", "value": "undetectable numbers"}, {"measurement": "numbers of bacteria", "setting": "E. coli NCIMB 14067; 50 ppm", "value": "undetectable numbers"}, {"measurement": "CFU/mL of negative control (MRD) larger than for the samples by", "setting": "E. coli NCIMB 14067; all concentrations (10, 25, 50 ppm) and time points tested", "value": "over 4 orders of magnitude"}, {"measurement": "time up to which rapid kill was observed", "setting": "S. aureus", "value": "up to 6 hours"}, {"measurement": "time up to which highly effective kill was observed", "setting": "E. coli; 250 ppm", "value": "up to 5 hours"}, {"measurement": "time up to which highly effective kill was observed", "setting": "E. coli; 675 ppm and above", "value": "up to 24 hours"}, {"measurement": "time up to which effective kill was observed", "setting": "E. coli; [4]", "value": "up to 24 hours"}, {"measurement": "time up to which effective kill was found", "setting": "E. coli; [5]", "value": "up to 24 hours"}, {"measurement": "time up to which rapid kill was observed", "setting": "E. coli", "value": "up to 24 hours"}, {"measurement": "time up to which highly effective kill was observed", "setting": "E. faecalis; 250 ppm, 30 seconds post-inoculation", "value": "Up to 5 hours"}, {"measurement": "time up to which highly effective kill was observed", "setting": "E. faecalis; 250 ppm, all time periods post-inoculation", "value": "up to 4 hours"}, {"measurement": "time up to which effective kill was observed", "setting": "E. faecalis; [4]", "value": "up to 24 hours"}, {"measurement": "time up to which highly effective kill was observed", "setting": "E. faecalis; 675 ppm, all time periods post-inoculation", "value": "up to 6 hours"}, {"measurement": "time up to which highly effective kill was observed", "setting": "E. faecalis; 675 ppm, from 30 seconds post-inoculation", "value": "up to 24 hours"}, {"measurement": "time up to which highly effective kill was observed", "setting": "E. faecalis; 1000 ppm, all time periods post-inoculation", "value": "up to 24 hours"}, {"measurement": "reduction in the microbial colony forming unit (CFU) counts", "setting": "E. faecalis; after 5 minutes of inoculation", "value": "over 3 orders of magnitude"}, {"measurement": "time up to which effective kill was found", "setting": "E. faecalis; [5]", "value": "up to 24 hours"}, {"measurement": "time up to which rapid kill was observed", "setting": "E. faecalis", "value": "up to 6 hours"}]}
{"smiles": "[O][Cl+][O-]", "note": "[chlorine dioxide]", "values": [{"measurement": "time up to which rapid kill was observed", "setting": "S. aureus", "value": "up to 6 hours"}, {"measurement": "time up to which rapid kill was observed", "setting": "E. coli", "value": "up to 24 hours"}, {"measurement": "reduction in the microbial colony forming unit (CFU) counts", "setting": "E. faecalis; after around 30 seconds of inoculation", "value": "4 orders of magnitude"}, {"measurement": "time up to which rapid kill was observed", "setting": "E. faecalis", "value": "up to 6 hours"}]}
{"smiles": "Nc1ccc(S(N)(=O)=O)cc1", "note": "[sulfanilamide, reference compound]", "values": [{"measurement": "change in challenge organism numbers compared to the control", "setting": "[1]; [6]", "value": "no decrease"}, {"measurement": "change in challenge organism numbers compared to the control", "setting": "[2]; [6]", "value": "no decrease"}]}
